The target in one assay is L225A AlaDH (Mycobacterium tuberculosis, UniProt P9WQB1, L225A). Type of assay: biochemical.
A further assay has as its target L249A AlaDH (Mycobacterium tuberculosis, UniProt P9WQB1, L249A). Type of assay: biochemical.

Consider `CC(C)CNc1ncnc2c1ncn2[C@@H]1O[C@H](CO)[C@@H](O)[C@H]1O` [N6-isobutyl adenosine], for which, at L225A AlaDH, the “vi of L225A AlaDH after adding compound” value was 0.821 x10^-3 [NADH]OD340/min. The “vi of L249A AlaDH after adding compound” value at L249A AlaDH is 1.007 x10^-3 [NADH]OD340/min.

Values taken from paper PMC9671377, “Label-free affinity screening, design and synthesis of inhibitors targeting the Mycobacterium tuberculosis L-alanine dehydrogenase” (PLOS ONE, 2022).
